# According to patent publication US20080182835A1 (priority 2006, published 2008):
# Where two headings read alike, the source gives them in different places.
# Columns and labels:
# [1] = test system: baby hamster kidney (BHK) cells; experiment: Cytotoxicity, CellTiter96 Proliferation Assay on BHK cells; format: cell-based
# Procedure: The cytotoxicity of Co(NH3)6 (Structure IV) was assessed by monitoring its ability to inhibit proliferation of baby hamster kidney (BHK) cells. BHK cells were cultured as exponentially growing subconfluent monolayers in complete growth medium, particularly Dulbecco's Modified Eagle's Medium (DMEM) supplemented with 1% (v/v) antibiotic/antimycotic agent and 10% (v/v) heat inactivated fetal bovine serum (FBS). Cells were grown in either T25 or T75 flasks (Acton, Mass.) and incubated at 37° C. under 5% CO2 atmosphere. A subculture was performed every 3-4 days.
# The in vitro toxicity of Co(NH3)6 was determined using the CellTiter96® Proliferation Assay (Promega, Madison, Wis.). This quantitative calorimetric assay is based upon the enzymatic conversion of a tetrazolium salt substrate into a blue formazan product with a maximum absorbance at 570 nm. […] At the assay endpoint, the absorbance at 570 nm is directly proportional to the number of viable cells. To assess compound toxicity, BHK cells were seeded into the wells of a 96-well tissue culture microtiter plate (2×10^4 cells/well) and cultured overnight at 37° C. in a humidified atmosphere containing 5% CO2. The next day, Co(NH3)6 was diluted into tissue culture media (at final concentrations ranging from 0 to 5 mM) and incubated with the cells for 72 hrs. Triplicate wells were included for each concentration. To control for any contaminating absorbance due to the compounds, control wells containing no cells were included at each compound concentration (“no cell” wells). At the end of the 72 hour culture period, 15 μL of tetrazolium substrate was added to each well and the plate was returned to the incubator for 4 hours to allow viable cells to convert the substrate into the formazan product. At the end of the 4 hour incubation period, 100 μL of solubilization solution was added to each well and the plate was subsequently incubated overnight to completely solubilize the contents of each well to a homogeneous color. The absorbance within each of the “no cell” wells was subtracted from the absorbance measured in the corresponding wells containing cells for each concentration of Co(NH3)6.
# Sindbis virus [2] = experiment: Log(PFU) per percent cell survival, plaque counts combined with CellTiter96 survival of infected BHK cells; format: cell-based; conditions: with increase in concentration, FIG. 4
# Description: Because live cell counts will decrease with increasing CoHex complex due to cytotoxicity of the cells and virus replication, but increase due to the anti-viral protection of CoHex, the plaque counts may have decreased due to the fact that there were less live cells available to count. […] The data of FIG. 3C was obtained using the CellTiter96 cell proliferation assay described above for the CoHex cytotoxicity data (i.e., with respect to FIG. 1) in which the cells were further infected with 5 plaque forming units per cell of Sindbis virus in DMEM containing 2% FBS in the absence or presence of various concentrations of Co(NH3)6, then assayed periodically.
# Therefore, the fraction cell survival data of FIG. 3C was combined with the log pfu data of FIG. 3A to generate a ratio, Log(PFU) per percent cell survival, which although not a physical measure, is a general model of viruses in surviving cells.
# Adenovirus = experiment: Flow cytometry propidium iodide viability of Adenovirus-infected A549 cells; format: cell-based; conditions: 6 hour pretreatment, 48 hours post infection, increasing concentration up to 0.0621 mM
# Description: Another example of antiviral activity is an in vitro model of a double stranded DNA (dsDNA) virus infection, Adenovirus. […] The same flow cytometry procedure discussed above for Sindbis viral infection in BHK cells was used for Adenovirus viral infection in A549 cells.
# Sindbis virus [3] = experiment: Sindbis virus plaque formation assay in BHK cells; format: cell-based, Sindbis virus (633-EGFP strain); conditions: 48 hours
# Sindbis virus [4] = test system: Sindbis virus
# Procedure: In these assays, Sindbis virus replication was assessed by monitoring viral structural protein synthesis using a recombinant Sindbis virus construct. In this construct, the gene encoding enhanced green fluorescent protein (EGFP) was placed under the control of the same promoter sequence that drives transcription of viral structural proteins. Thus, upon Sindbis virus replication, virally infected cells produce intracellular EGFP at levels that are proportional to the level of viral structural proteins.
# BHK cells (1×10^5) were plated into the wells of 24-well plates in 1 mL of complete media and incubated with increasing concentrations of Co(NH3)6 for 6 hours prior to infection with Sindbis virus at a multiplicity of infection (moi) of 5 pfu per cell. The infection was allowed to proceed for 48 hours. In preparation for analysis by flow cytometry, cells from each well were removed and pelleted, washed with PBS, and resuspended in 500 μL of PBS. One half of each sample was analyzed directly to determine the percentage of EGFP-positive cells (percent infected cells). The other half of each sample was incubated with 5 μM propidium iodide for 1 minute prior to the determination of the percentage of non-viable cells. In all cases, analysis was performed on 1×10^4 cells.
# BHK cells were pretreated with Co(NH3)6 for 6 hours prior to infection with Sindbis virus. After 48 hours post infection, both the percentage of Sindbis-infected cells (as evidenced by EGFP fluorescence) and the percentage of viable cells (as determined by the exclusion of propidium iodide (PI)) were determined as a function of Co(NH3)6 concentrations.
# [5] = Ligand exchange with free histidine by UV-VIS and NMR; format: physicochemical; conditions: ratio 100:1 histidine to Co(NH3)6, results not shown
# mRNA luciferase template = experiment: Rabbit Reticulocyte Lysate Translation System, luciferase mRNA translation (Western blot); format: biochemical; conditions: same test, CoCyclen data not provided
# Procedure: CoHex is capable of preventing translation of a messenger RNA (mRNA) in vitro. The ability Co(NH3)6 to inhibit translation of an mRNA luciferase template was assessed using the Rabbit Reticulocyte Lysate Translation System (Promega) according to the manufacturer's instructions. In the example discussed below, Co(NH3)6 in various concentrations was incubated with the […] for 10 minutes before the addition of the mRNA template to the translation lysate. Translated luciferase protein was run on a 10% SDSPAGE gel for 45 min at 130 V and detected by Western blot on a PVDF membrane. Proteins were detected using a streptavidinalkaline phosphatase conjugate and Western Blue substrate according to the instructions in the Transcend Non-Radioactive Translation Detection System (Promega). In FIG. 2, Lane 1 represents the incubation of 0.01 mM Co(NH3)6. Lane 2 represents the incubation of 0.02 mM Co(NH3)6. Lane 3 represents the incubation of 0.05 mM Co(NH3)6. Lane 4 represents the incubation of 0.1 mM Co(NH3)6. Lane 5 represents the incubation of 0.2 mM Co(NH3)6. Lane 6 is a positive control in which no Co(NH3)6 is added. Lane 7 is a negative control in which no translation occurs. The lanes marked M are molecular weight marker lanes. […]
substance,measurement,setting,value
Co(NH3)6,cell viability,"[1]; 72 hrs, at 2.5 mM",about 80%
same,CC50,"[1]; 72 hrs, from FIG. 1, read-out: 50% cytotoxicity concentration (CC50)",~3200 µM
same,toxicity compared with cis-Platin,[1]; FIG. 1,much less toxic
same,toxicity (inhibition of cellular proliferation),[1]; concentrations below 0.3 mM,no significant toxicity
same,toxicity (inhibition of cellular proliferation),[1]; concentrations below 2.5 mM,only mildly toxic
same,concentration of maximum toxicity,[1]; highest concentration tested,5000 µM
same,Log(PFU) per percent cell survival,Sindbis virus [2],significant decrease in viral infection
same,survival rate of Adenovirus-infected A549 cells,Adenovirus,increase in survival rate
same,IC50,"Sindbis virus [3]; BHK cells, read-out: IC50, inhibition of Sindbis virus plaque formation",~100 µM
same,"maximal inhibition of virus replication, decrease in pfu over control",Sindbis virus [3]; at about 2.5 mM,about 2.5 log
same,selectivity ratio CC50/IC50,Sindbis virus [4]; Sindbis virus over BHK cells,about 25
same,percentage of EGFP-positive (Sindbis-infected) cells,Sindbis virus [4]; at 0.15 mM,distinct decrease
same,effect of timing of administration on inhibition of EGFP expression,"Sindbis virus [4]; pretreatment, co-infection or early post-treatment",equally effective
same,IC50,"Sindbis virus [4]; read-out: IC50, inhibition of EGFP expression, 6 hours pretreatment, 48 hours post infection, moi 5",130 ± 40 µM
same,exchange of ammonia groups with free histidine,[5],does not appear to have labile ligands
same,inhibition of protein translation relative to conventional CoCyclen structure,mRNA luciferase template,about 10 times
